Patent publication US20140094484A1, “SUSTAINED DELIVERY FORMULATIONS OF RAPAMYCIN COMPOUNDS” (QLT Inc., priority 2012, published 2014)
“Also recorded” adds a separate entry of the source.

Assays:
[1] = tested on: choroidal neovascularization (CNV); assay: Laser-induced CNV rat model, fluorescein angiography evaluation; assay type: in vivo, Long Evans rats; conditions: for effect on CNV development: intravitreal injection immediately after laser photocoagulation
Method: (§1) Thermal laser infrared light (diode laser 810 nm) at 200 mW for 0.075 seconds was delivered to the fundus of Long Evans rats using a slit lamp and a slit lamp adaptor. A total of 6 lesions with 75 μm diameter were placed in a circular pattern surrounding the optic disc on the posterior pole.
(§2) Intravitreal injection was performed immediately after laser photocoagulation. Briefly, three days prior to the injection, 0.3% Ciloxan ointment was applied to the eye once daily. At the time of injection, the eye pocket was irrigated and the conjunctiva swabbed with 1.0% Betadine solution. A 30-gauge needle connected to a 10-4, Hamilton syringe that contained 5 μL carboxymethylcellulose (CMC)-based Rapamycin suspension (0.5, 5, 10 or 40 mg/mL) or CMC vehicle alone was inserted 1 mm posterior to the corneoscleral limbus. The injection began when the bevel of the needle faced down and reached the vitreous about 1-2 mm in depth with the visual aid of a dissecting microscope. After injection, topical 0.3% Ciloxan ointment was applied to the eye once daily for 2 days.
FA was performed on the 14th day after intravitreal injection of Rapamycin. Briefly, a 25-gauge butterfly catheter was placed in the tail vein on an anesthetized animal and a Heparin-Lock solution (0.50 mL of 10,000 IU/mL Heparin Sodium with 0.95 mL 0.9% Saline) was used to fill the catheter line to maintain intravenous access. A dose of 10 mg/kg of Diofluor 10% (Fluorescein Sodium 10%) was delivered through the tail vein, followed by a flush of sterile saline to ensure full delivery of Diofluor 10%. An infusion pump (Becton-Dickinson) connected to a 60 cc syringe was used to infuse the Diofluor 10% at a constant rate of 6 mL/min (8.4-13.2 pounds per square inches) to allow for consistency in the synchronization of the fluorescein bolus injection and the angiogram acquisition. Photographs were taken with a fluorescence fundus camera at 1-10, 30, 60, 90, 180, and 300 sec after Diofluor 10% administration. The leakiness of CNV was assessed by two independent readers masked to the treatment.

[2] = tested on: choroidal neovascularization (CNV); assay: Laser-induced CNV rat model, histological evaluation (CNV area, CD31 positive cell count); assay type: in vivo, Long Evans rats
Method: as §1
as §2, with “A 30-gauge needle connected to a 10-4, Hamilton syringe that contained 5 μL carboxymethylcellulose (CMC)-based Rapamycin suspension (0.5, 5, 10 or 40 mg/mL) or CMC vehicle alone was inserted 1 mm posterior to the corneoscleral limbus.” left out
Eyes were enucleated and chorioretinal tissues that contained the CNV lesions prepared and fixed for about 18 hours in formic acid alcohol, and then replaced with 70% alcohol until the specimen was processed to wax by a standard method. Slides were stained with mouse anti rat CD31 (Chemicon, UK) by a standard immunohistochemistry protocol. This briefly consisted of removal of endogenous peroxidase enzymes with methanol and hydrogen peroxide, primary antibody as above, and the secondary donkey antibody anti mouse conjugated to biotin. Streptavidin ABC and Vector VIP substrate (Vector labs, Burlingame Calif.) were further added. Haematoxylin was used as a counterstain. Representative images before and after the center of each CNV lesion were taken using the 20× objective of an Olympus BX61 microscope fitted with a Spot RT colour camera (Diagnostic instruments, MI USA). Each image was applied to the standard image analysis macro in the software Image pro to identify the mean of lesion area for each CNV and the mean of CD31 positive cell counts (i.e. endothelial cells) within the CNV lesion area. All measurements were generated by two independent readers masked to the treatments. The data was analyzed in Excel and GraphPad Prism. The 80% correlation found between readers was deemed acceptable.

[3] = tested on: human peripheral blood T cells; assay: IFNgamma release from T cells stimulated with phytohemagglutanin; assay type: cell-based; conditions: T-cell
Method: (§3) Targeted tissue concentrations were estimated from in vitro experiments assessing the inhibitory effects of rapamycin on endothelial cell proliferation and cytokine release from immune cells. Human umbilical endothelial cells were activated with Vascular Endothelial Growth Factor (VEGF) and incubated with various concentrations of rapamycin. Cell proliferation was evaluated by quantifying [3}H-thymidine incorporation after 48 hours. […] The IC50 for the release of TNFalpha from Lipopolysaccharide and IFNgamma treated THP-1 cells (monocytic cell line) was ˜1 nM and the IC50 for the release of IFNgamma from human peripheral blood T cells stimulated with phytohemagglutanin was ˜2 nM.

[4] = tested on: THP-1 cells (monocytic cell line); assay: TNFalpha release from Lipopolysaccharide and IFNgamma treated THP-1 cells; assay type: cell-based; conditions: Homo sapiens
Method: as §3

[5] = tested on: mTOR; assay: Pharmacodynamic evaluation: Ser235/236 phosphorylation of S6 ribosomal protein in chorioretinal tissues (western blot); assay type: in vivo, Long Evans rats
Method: Upon euthanasia of the animal, the eyes were cut along the equator, separating the anterior and posterior segments. The vitreous was removed and the remaining back of eye (with intact retina, choroid and sclera) was placed in a labeled Nalgene Cryotube, immediately immersed in liquid nitrogen, and stored at −80° C. until ready to use. Upon lysis, tubes containing tissue were brought to room temperature to thaw. Tissues were lysed in 400 μL of lysis buffer (Cell Signaling CAT #: 9803) with protease inhibitor cocktail (Calbiochem CAT #: 539131) and beads in Matrix D Tubes (Q-biogene, CAT #: 6913-100) in the Fast Prep Instrument. Protein concentration of each sample was determined using the Pierce BCA Protein Determination Kit (Pierce, CAT #: 23225) and BSA as a standard. Samples were analyzed by SDS-PAGE, followed by western blotting. Primary antibodies included antibodies against phosphorylated S6 ribosomal protein, S6 ribosomal protein, and beta-actin antibody. Secondary antibodies included goat anti-Rabbit HRP linked antibodies, or Goat anti-Mouse HRP linked antibodies. Bound antibodies were detected using ECL or ECL plus Western Blotting Reagents. Densitometric evaluation was performed on blots scanned by Bio-Rad Multi-Analyst Software, and analyzed in MS Excel and GraphPad Prism.
Rapamycin inhibits mTOR activity, which then down-regulates Ser235/236 phosphorylation of the downstream target of mTOR, the S6 ribosomal protein. In order to evaluate the pharmacodynamic response of intravitreally administered rapamycin in the eye, the serine phosphorylation of S6 protein extracted from chorioretinal tissues was analyzed by western blot, and standardized by the total amount of S6 protein. […] The inhibitory effect of rapamycin on S6 phosphorylation occurred within the first 24 h and lasted for 7 days post-dosing, the longest follow-up timepoint.

[6] = tested on: Human umbilical endothelial cells; assay: VEGF-activated endothelial cell proliferation, [3H]-thymidine incorporation; assay type: cell-based; conditions: [3H]-thymidine incorporation after 48 hours
Method: as §3

With `CC1(C)O[C@@H]2C[C@H]3[C@@H]4CCC5=CC(=O)C=C[C@]5(C)[C@@]4(F)[C@@H](O)C[C@]3(C)[C@]2(C(=O)CO)O1` [triamcinolone acetonide (TA), triamcinolone acetonide] the “incidence of leaky CNV at the 14-day follow-up” value ([1]; intravitreal dose of 200 μg, rat) was 10%, the “inhibition of CNV area” value ([2]; TA intravitreal 200 μg) was “approximately 50%” and the “inhibition of endothelial cell count” value ([2]; TA intravitreal 200 μg) was roughly 60%.
For `CO[C@H]1C[C@@H]2CC[C@@H](C)[C@@](O)(O2)C(=O)C(=O)N2CCCC[C@H]2C(=O)O[C@H]([C@H](C)C[C@@H]2CC[C@@H](O)[C@H](OC)C2)CC(=O)[C@H](C)/C=C(\C)[C@@H](O)[C@@H](OC)C(=O)[C@H](C)C[C@H](C)/C=C/C=C/C=C/1C` [rapamycin, Rapamycin], the IC50 [3] was roughly 2 nM, the “response in the rat CNV model” value ([1]; 5 μg intravitreally injected) was “nearly a complete response” and the “effect on CNV development” value ([1]; rat) was “dose dependent inhibition of CNV development”. For the same compound, the “effect on CNV development” value ([1]; rat, listed as Rapamycin) was “potent inhibitor of CNV; also recorded: inhibited the development of CNV”, the “incidence of developing leaky CNV 2 weeks after laser photocoagulation” value (“incidence … after laser photocoagulation” for short) ([1]; single intravitreal injection of 0.5 μg rapamycin in CMC, rat) was 65% and the “incidence … after laser photocoagulation” value ([1]; single intravitreal injection of 5 μg rapamycin in CMC, rat) was 5%. For the same compound, the “incidence … after laser photocoagulation” value ([1]; single intravitreal injection of 50 μg rapamycin in CMC, rat) was 2%, the “reduction in CNV area compared to the vehicle group” value (“reduction in CNV area” for short) ([2]; 0.5 μg intravitreal) was 15% and the “reduction in CNV area” value ([2]; 5 μg intravitreal) was 55%. For the same compound, the “reduction in CNV area” value ([2]; 50 μg intravitreal) was 50%, the “overall reduction in the number of endothelial cells within the CNV area compared to the vehicle group” value ([2]; 50 μg, 5 μg and 0.5 μg intravitreal) was 50-60% and the “CNV area and number of endothelial cells in the CNV lesions after treatment” value ([2]; intravitreal 50, 5, 0.5 μg) was “reduced after rapamycin treatment in a dose-dependent manner”. The IC50 [4] was roughly 1 nM, the “level of phosphorylated Ser235/236 on S6 ribosomal protein, standardized by total S6 protein” value ([5]; intravitreal, chorioretinal tissues, day 1, 3, 7 post-dosing, vs untreated or vehicle injected eyes) was “significantly reduced” and the “time within which the inhibitory effect on S6 phosphorylation occurred” value ([5]; intravitreal, rat) was no more than 24 h. For the same compound, the “time the inhibitory effect on S6 phosphorylation lasted post-dosing” value ([5]; intravitreal, rat, longest follow-up timepoint) was 7 days, the “activation of its target mTOR” value ([5]; rat model of laser-induced CNV) was “suppressed the activation of its target mTOR at all tested time points” and the IC50 [6] was 69 nM.
